Results as given in patent US11597739B2, “Enhancing CD8+ T cells for adoptive T cell therapy by inhibiting PTPN1 (PTP1B) and PTPN2 (TC-PTP)” (The Royal Institution for the Advancement of …, priority 2017, dated 2023).

Test system: OVA expressing EG.7 lymphoma target cells
Test: Calcein-release cytotoxicity assay of OT-1 CTLs
Assay type: cell-based, mouse
Details: OT-1 CD8 cells activated with inhibitor at 50 μM; 5 hours; every effector to target ratio; versus untreated, K882 or K885
Description: 9) Cytotoxicity Experiments
3 days before the experiment thaw a new vial of EG.7 cells. After 24 h in culture, the cells are resuspended at 5×10^4 and 100 U/ml of IFN-γ is added. The day of the experiment, the EG.7 cells are harvested, washed once with HBSS. The EG.7 cells are resuspended at 10^6/ml in HBSS and 10 μM Calcein-AM added. The cells are incubated at 37° C. for 1 hr in the dark, washed twice with complete RPMI and counted. They are then resuspend at 3×10^5/ml.
The following wells from a 0.75×10^6/ml suspension of the CD8 (Effector) cells to have different effector to target ratios are prepared in duplicate. Before plating the effector cells, RPMI complete is added, 50 μl to the 5:1 ratio wells and 90 μl to the 1:1 ratio wells. • 75×10^3 (100 μl) 25:1 ratio. • Dilute the suspension 1:2.5 volumes: • 30×10^3 (100 μl) 10:1 ratio. • 15×10^3 (50 μl) 5:1 ratio. • 3×10^3 (10 μl) 1:1 ratio. • Prepare at least 2 wells with 100 μl of RPMI complete.
100 μl of EG.7 (Target) cells is added and spin at 400×g for 2 minutes, RT. […]
For Controls: Background fluorescence (BF): Harvest 100 μl supernatant from control wells. Absolut fluorescence (AF): Add 100 μl of methanol to the control wells harvested for background. […]
Calculate the specific cell lysis as follows: Specific cell lysis=((Sample−BF)/(AF−BF))×100 10) Flow Cytometry 1. […] Record cell quantity transfers per tube; • b. […]

`CCOC(=O)c1cc2cc(C(F)(F)P(=O)(O)O)c(Br)cc2s1` [Ex. 1, ((6-BROMO-2-(ETHOXYCARBONYL)BENZO[B]THIOPHEN-5-YL)DIFLUOROMETHYL)PHOSPHONATE] was tested, and the “specific cytotoxicity (lysis of EG.7 cells)” value was “lysed EG.7 cells with greater efficiency”.
